The source of these data is paper PMC7368294 (Proceedings of the National Academy of Sciences of the …, 2020).

Experiment [1] concerns the target Btα1/Btα2/Btα8/Btβ1 nAChR (Bombus terrestris, UniProt A0A9B0BGM1+A0A9B0F4H3+A0A9B2JDZ7+A0A9B2JMX7). Nature of the experiment: cell-based. More on the design: species or system Xenopus laevis oocytes. As to conditions: Oocyte.
The target of the next experiment is T1, Dα1/Dβ1/Dβ2 nAChR (Drosophila melanogaster, UniProt P04755+P09478+P25162).
T1 sequence (P09478 22-567): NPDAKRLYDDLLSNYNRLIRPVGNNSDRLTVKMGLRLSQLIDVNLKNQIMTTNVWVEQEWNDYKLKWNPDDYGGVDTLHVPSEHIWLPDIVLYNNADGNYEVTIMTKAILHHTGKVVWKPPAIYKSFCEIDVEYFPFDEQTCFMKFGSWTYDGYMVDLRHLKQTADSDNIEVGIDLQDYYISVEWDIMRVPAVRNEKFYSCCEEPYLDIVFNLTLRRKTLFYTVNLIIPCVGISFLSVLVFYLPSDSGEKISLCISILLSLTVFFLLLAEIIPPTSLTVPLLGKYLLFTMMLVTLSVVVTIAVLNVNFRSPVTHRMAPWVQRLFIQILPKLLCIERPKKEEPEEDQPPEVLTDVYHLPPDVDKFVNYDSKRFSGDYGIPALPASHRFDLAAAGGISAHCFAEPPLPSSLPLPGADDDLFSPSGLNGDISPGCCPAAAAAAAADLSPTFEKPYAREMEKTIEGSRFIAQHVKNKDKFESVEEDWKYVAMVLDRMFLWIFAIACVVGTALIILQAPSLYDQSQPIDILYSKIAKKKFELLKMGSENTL
T1 sequence (P04755 25-521): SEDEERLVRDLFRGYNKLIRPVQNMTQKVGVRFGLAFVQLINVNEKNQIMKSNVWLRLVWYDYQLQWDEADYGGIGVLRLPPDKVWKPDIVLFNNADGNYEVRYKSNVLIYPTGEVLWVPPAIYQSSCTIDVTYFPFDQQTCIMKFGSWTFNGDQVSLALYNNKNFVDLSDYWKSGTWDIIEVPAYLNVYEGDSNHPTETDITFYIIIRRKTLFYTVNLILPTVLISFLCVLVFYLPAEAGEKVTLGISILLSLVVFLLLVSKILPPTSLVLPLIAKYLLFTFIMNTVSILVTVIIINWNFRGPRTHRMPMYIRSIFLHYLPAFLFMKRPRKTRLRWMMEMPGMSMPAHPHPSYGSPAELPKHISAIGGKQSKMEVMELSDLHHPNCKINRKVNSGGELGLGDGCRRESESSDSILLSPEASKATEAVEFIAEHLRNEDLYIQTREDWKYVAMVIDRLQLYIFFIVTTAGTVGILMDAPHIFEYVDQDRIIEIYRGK
T1 sequence (P25162 19-519): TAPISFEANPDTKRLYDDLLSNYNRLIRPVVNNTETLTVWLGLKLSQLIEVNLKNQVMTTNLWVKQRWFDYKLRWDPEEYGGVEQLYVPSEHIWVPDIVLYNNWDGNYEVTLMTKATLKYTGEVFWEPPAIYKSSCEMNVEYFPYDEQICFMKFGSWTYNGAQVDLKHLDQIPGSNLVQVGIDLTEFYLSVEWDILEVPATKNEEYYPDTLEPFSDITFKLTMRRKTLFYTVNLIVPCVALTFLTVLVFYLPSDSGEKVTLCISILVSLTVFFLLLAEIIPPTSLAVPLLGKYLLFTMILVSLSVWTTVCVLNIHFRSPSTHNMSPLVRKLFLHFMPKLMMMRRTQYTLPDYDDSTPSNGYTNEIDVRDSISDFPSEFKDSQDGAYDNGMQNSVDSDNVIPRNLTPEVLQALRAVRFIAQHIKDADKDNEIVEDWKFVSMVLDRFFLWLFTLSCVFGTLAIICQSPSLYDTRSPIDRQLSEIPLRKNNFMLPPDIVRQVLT
Nature of the experiment: cell-based. Also noted: species or system Xenopus laevis oocytes. As to conditions: Oocyte.

Experiment [2] has as its target Amα1/Amα2/Amα8/Amβ1 nAChR (Apis mellifera, UniProt A0A7M7MMZ9+A0A8U0WQ70+A0A8U0WQC0+A0A8U0WQD1). Nature of the experiment: two-electrode voltage clamp of Xenopus oocytes, agonist concentration-response. Format: cell-based.

Like-named read-outs stand apart in the source and are kept apart here.

Amα1/Amα2/Amα8/Amβ1 nAChR, sequence (A0A7M7MMZ9 44-627): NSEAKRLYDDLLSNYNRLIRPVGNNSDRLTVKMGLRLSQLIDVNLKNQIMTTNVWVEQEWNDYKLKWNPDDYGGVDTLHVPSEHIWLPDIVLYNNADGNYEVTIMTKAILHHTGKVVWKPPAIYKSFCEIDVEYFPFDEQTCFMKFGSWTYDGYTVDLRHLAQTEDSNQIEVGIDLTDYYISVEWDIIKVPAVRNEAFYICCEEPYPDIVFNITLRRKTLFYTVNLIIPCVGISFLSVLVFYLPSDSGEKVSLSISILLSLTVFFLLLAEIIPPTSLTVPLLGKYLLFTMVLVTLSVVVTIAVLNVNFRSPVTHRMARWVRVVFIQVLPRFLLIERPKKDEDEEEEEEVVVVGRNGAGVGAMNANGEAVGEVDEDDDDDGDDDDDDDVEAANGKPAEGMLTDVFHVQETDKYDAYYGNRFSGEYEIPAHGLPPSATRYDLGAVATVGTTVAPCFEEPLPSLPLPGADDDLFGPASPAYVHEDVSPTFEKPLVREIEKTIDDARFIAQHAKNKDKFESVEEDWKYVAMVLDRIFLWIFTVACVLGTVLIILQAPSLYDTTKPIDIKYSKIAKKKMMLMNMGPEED
Amα1/Amα2/Amα8/Amβ1 nAChR, sequence (A0A8U0WQD1 18-541): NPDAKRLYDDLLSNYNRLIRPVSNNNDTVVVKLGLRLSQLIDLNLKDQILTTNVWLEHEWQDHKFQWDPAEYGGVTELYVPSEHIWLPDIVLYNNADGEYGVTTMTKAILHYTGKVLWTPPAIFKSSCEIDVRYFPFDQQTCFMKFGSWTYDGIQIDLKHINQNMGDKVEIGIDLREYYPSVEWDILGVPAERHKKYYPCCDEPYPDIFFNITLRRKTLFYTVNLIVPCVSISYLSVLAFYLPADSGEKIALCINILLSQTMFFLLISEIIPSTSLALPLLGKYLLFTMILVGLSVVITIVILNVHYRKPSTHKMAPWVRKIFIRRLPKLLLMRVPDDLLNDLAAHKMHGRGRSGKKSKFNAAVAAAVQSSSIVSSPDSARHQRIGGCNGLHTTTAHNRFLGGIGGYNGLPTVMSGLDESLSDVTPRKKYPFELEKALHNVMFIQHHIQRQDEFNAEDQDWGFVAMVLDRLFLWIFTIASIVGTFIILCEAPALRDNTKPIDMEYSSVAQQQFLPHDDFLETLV
Amα1/Amα2/Amα8/Amβ1 nAChR, sequence (A0A8U0WQ70 25-537): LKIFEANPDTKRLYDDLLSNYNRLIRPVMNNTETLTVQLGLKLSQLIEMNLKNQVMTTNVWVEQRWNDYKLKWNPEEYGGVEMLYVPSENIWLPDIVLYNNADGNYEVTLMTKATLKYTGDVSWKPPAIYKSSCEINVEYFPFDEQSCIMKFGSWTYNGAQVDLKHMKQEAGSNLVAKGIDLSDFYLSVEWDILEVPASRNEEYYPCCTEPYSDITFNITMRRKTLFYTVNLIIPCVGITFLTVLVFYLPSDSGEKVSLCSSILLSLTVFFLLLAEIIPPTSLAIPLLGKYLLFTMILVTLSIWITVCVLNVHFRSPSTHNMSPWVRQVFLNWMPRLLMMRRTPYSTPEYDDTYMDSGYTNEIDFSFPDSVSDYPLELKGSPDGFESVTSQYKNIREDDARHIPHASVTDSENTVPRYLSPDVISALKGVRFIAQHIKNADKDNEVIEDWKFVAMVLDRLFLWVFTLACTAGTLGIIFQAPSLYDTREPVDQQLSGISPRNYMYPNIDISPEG
Amα1/Amα2/Amα8/Amβ1 nAChR, sequence (A0A8U0WQC0 25-520): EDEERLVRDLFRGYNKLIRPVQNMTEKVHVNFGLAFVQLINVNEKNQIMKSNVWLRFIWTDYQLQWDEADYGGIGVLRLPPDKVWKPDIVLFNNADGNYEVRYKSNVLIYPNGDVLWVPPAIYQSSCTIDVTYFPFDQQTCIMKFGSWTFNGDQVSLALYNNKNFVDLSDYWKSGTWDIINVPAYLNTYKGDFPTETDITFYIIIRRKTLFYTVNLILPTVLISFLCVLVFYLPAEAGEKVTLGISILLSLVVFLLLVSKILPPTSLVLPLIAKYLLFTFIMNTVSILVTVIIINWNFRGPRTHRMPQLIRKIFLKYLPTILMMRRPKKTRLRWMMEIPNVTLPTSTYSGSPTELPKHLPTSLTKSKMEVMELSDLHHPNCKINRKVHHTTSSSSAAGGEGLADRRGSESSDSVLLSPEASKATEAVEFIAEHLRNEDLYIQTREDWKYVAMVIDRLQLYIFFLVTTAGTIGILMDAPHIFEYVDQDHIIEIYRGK
Btα1/Btα2/Btα8/Btβ1 nAChR, sequence (A0A9B0F4H3 44-615): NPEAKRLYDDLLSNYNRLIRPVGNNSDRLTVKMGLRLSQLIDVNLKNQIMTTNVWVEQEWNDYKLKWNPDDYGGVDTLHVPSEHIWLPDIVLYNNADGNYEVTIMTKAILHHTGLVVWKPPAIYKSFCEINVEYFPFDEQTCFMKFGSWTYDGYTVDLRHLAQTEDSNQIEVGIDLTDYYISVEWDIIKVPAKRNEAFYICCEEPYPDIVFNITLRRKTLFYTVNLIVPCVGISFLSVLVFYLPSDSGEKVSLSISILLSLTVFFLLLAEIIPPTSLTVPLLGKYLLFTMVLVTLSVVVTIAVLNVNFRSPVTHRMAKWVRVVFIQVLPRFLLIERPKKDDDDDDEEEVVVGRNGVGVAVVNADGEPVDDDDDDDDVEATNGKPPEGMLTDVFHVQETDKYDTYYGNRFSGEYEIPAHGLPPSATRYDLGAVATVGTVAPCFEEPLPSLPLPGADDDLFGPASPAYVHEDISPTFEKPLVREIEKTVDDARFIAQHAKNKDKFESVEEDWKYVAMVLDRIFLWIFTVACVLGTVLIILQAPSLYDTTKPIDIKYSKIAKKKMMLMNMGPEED
Btα1/Btα2/Btα8/Btβ1 nAChR, sequence (A0A9B2JMX7 18-544): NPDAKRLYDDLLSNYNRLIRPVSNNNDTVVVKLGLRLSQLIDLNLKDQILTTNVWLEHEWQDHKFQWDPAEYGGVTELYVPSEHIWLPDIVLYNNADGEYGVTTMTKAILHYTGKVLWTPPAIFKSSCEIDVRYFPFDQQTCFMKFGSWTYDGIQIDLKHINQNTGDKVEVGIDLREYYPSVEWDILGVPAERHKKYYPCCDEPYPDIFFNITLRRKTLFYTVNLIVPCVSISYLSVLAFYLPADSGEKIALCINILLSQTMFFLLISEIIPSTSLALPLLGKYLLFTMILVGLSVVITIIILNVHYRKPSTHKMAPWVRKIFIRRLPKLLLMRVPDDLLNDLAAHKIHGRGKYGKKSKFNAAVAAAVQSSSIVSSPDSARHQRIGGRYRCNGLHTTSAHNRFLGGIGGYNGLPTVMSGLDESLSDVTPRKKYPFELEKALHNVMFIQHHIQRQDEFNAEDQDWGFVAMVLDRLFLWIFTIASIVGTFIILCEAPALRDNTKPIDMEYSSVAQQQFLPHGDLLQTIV
Btα1/Btα2/Btα8/Btβ1 nAChR, sequence (A0A9B2JDZ7 22-535): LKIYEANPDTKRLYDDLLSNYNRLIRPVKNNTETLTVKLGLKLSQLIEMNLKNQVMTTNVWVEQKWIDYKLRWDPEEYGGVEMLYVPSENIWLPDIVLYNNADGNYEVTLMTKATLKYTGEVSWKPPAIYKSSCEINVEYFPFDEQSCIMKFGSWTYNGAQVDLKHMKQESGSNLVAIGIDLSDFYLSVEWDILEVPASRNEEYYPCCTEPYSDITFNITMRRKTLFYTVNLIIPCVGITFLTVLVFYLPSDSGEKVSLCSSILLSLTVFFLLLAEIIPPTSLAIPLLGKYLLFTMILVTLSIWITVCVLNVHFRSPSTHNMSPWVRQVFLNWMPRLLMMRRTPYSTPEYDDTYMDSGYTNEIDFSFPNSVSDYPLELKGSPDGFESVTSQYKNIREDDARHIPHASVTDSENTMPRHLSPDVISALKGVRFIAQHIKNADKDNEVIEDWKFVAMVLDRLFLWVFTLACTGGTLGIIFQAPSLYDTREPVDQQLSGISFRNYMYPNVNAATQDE
Btα1/Btα2/Btα8/Btβ1 nAChR, sequence (A0A9B0BGM1 19-519): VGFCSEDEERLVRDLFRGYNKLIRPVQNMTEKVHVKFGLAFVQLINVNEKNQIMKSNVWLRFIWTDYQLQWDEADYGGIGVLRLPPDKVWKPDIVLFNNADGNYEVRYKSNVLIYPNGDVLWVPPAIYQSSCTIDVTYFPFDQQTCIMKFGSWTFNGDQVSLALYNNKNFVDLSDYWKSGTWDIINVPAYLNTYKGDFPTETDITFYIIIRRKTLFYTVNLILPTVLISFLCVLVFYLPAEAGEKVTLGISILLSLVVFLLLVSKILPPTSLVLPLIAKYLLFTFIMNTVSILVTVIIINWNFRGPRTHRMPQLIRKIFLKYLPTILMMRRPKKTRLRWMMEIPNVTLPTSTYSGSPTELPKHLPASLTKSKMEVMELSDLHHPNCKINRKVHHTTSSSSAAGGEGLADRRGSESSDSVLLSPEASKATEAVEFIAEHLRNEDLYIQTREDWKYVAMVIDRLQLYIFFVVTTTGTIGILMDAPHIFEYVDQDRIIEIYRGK

Turning to `CN/C(=N\[N+](=O)[O-])NCc1cnc(Cl)s1` [clothianidin], the Emax in experiment [1] (read-out: Clothianidin / Imax) is 68 ± 2.9%; on Dα1/Dβ1/Dβ2 nAChR (read-out: Clothianidin / Imax / ND) it was 41.1 ± 1.1%. In experiment [2], this molecule gave a half-maximal effective concentration (EC50) of 8.13 nM.

On to `O=[N+]([O-])NC1=NCCN1Cc1ccc(Cl)nc1` [imidacloprid], for which the Emax in experiment [1] (read-out: Imidacloprid / Imax) was 8.5 ± 0.7%; on Dα1/Dβ1/Dβ2 nAChR (read-out: Imidacloprid / Imax), 24.4 ± 2.2%. Besides, the EC50 in experiment [2] is 33.1 nM.

Take `N#C/N=C1\SCCN1Cc1ccc(Cl)nc1` [thiacloprid]: the Emax in experiment [1] (read-out: Thiacloprid / Imax) is 9.2 ± 1.1%; on Dα1/Dβ1/Dβ2 nAChR (read-out: Thiacloprid / Imax), 5.6 ± 0.5%. In experiment [2], this molecule gave an EC50 of 6.92 nM.

For orientation: EC50 means the concentration giving half of the maximal effect.
